Literature values as cited in patent US20240010628A1, “METHODS OF MANUFACTURE OF R-MDMA” (Mind Medicine, Inc., priority 2022, published 2024).

Columns and labels:
[1] = tested on: parkinsonian animal model
[2] = target: 5-HT2A receptors (Homo sapiens, UniProt P28223)
[3] = tested on: dopamine
[4] = in vivo
[5] = target: SERT (Homo sapiens, UniProt P31645)
[6] = target: DAT (Homo sapiens, UniProt Q01959)
DAT, sequence (Q01959 whole entry, species assumed): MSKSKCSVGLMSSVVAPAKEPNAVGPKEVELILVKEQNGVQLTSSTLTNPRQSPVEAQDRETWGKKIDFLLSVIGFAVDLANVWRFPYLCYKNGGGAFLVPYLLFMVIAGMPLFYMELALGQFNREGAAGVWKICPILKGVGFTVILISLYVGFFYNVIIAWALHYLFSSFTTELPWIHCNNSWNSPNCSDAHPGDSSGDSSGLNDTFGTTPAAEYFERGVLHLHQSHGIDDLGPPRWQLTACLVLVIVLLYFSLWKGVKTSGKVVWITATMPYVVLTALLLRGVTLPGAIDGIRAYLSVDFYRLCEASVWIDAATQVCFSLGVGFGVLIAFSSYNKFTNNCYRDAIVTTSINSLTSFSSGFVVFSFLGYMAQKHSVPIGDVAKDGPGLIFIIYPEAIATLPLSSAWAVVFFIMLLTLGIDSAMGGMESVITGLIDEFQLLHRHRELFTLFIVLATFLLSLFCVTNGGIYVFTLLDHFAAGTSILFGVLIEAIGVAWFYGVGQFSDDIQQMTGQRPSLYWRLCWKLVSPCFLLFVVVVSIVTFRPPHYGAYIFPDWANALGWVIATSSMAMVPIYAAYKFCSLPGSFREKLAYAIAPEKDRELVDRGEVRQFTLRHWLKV

5-HT2A receptors, sequence (P28223 whole entry): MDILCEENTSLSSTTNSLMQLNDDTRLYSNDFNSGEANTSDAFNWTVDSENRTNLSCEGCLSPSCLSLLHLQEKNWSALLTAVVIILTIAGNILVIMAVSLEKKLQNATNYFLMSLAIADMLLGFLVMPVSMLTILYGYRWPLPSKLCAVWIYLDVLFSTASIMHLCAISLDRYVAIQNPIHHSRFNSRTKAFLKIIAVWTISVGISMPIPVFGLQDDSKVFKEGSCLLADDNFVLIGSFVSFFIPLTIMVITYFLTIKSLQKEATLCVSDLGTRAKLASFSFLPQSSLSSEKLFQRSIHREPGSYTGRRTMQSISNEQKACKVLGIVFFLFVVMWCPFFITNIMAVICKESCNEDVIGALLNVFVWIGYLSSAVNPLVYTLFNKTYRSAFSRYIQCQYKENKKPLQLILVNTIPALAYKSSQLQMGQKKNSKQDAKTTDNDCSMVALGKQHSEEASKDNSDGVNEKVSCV
SERT, sequence (P31645 whole entry, species assumed): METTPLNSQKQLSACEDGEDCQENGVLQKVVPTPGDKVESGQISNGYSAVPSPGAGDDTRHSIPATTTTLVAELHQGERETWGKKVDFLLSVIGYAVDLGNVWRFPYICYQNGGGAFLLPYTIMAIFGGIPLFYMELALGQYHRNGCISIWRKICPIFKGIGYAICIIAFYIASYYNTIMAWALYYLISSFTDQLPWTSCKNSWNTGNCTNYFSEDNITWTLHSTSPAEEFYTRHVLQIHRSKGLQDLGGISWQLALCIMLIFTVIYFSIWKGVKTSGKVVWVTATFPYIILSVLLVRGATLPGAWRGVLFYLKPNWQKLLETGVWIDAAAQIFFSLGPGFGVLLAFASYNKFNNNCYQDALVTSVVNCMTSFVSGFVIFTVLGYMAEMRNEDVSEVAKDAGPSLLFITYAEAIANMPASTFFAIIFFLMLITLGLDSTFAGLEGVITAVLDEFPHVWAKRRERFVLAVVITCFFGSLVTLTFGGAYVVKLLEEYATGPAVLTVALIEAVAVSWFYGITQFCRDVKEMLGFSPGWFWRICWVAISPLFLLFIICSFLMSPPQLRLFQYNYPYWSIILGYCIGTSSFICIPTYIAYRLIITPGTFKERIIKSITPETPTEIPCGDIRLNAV

Compound | severity of peak-dose dyskinesia / dyskinesia [1] | total duration of ON-time [1] | duration of good ON-time [1] | selectivity for 5-HT2A receptors [2] | efficacy as a releaser of dopamine [3] | hyperthermia [4] | affinity for SERT [5] | affinity for DAT [6]
CNC(C)Cc1ccc2c(c1)OCO2 (racemic) [racemic MDMA, 3,4-Methylenedioxymethamphetamine, reference compound] | reducing dyskinesia | extending ON-time |  |  |  |  |  | 
CN[C@H](C)Cc1ccc2c(c1)OCO2 [R-MDMA, (R)-1-(benzo[d][1,3]dioxol-5-yl)-N-methylpropan-2-amine] | decreased |  | increased | selective compound for 5-HT2A receptors | low efficacy | does not produce hyperthermia |  | 
CN[C@@H](C)Cc1ccc2c(c1)OCO2 [S-MDMA, (S)-1-(benzo[d][1,3]dioxol-5-yl)-N-methylpropan-2-amine] | exacerbated | extended |  |  |  |  | high affinity | moderate affinity
